What was measured:
[1] = biological target: Larg1 (lpg0081, 16–428aa) (Legionella pneumophila, UniProt Q5ZZD0)
[2] = biological target: Larg1 (Lpg0081) (Legionella pneumophila, UniProt Q5ZZD0)
Chain of Larg1 (Lpg0081) (Q5ZZD0 1-441 limits assumed): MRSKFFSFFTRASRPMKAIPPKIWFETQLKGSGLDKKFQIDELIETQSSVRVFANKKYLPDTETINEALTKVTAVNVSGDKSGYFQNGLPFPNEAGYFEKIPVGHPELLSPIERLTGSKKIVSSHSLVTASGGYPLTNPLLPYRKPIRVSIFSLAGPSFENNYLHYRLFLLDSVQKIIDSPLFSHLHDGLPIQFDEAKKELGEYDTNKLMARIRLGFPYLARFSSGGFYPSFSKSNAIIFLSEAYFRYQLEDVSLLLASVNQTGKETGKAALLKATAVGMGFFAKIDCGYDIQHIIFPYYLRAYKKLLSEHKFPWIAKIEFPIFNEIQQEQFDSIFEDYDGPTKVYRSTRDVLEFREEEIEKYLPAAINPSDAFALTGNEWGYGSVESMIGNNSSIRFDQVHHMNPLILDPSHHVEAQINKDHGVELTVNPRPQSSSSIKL

Chain of Larg1 (lpg0081, 16–428aa) (Q5ZZD0 16-428 limits assumed): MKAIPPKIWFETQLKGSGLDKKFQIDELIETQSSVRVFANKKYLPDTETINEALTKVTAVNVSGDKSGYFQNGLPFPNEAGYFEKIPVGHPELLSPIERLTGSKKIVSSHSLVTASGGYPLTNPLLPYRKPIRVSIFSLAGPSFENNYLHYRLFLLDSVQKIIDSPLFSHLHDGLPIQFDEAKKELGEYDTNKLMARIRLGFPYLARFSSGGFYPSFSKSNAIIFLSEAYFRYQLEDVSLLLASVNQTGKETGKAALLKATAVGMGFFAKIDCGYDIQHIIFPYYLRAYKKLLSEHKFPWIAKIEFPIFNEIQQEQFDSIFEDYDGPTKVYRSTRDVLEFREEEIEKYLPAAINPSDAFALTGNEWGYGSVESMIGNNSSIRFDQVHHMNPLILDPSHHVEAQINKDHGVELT

In the case of `Nc1ncnc2c1ncn2[C@@H]1O[C@H](COP(=O)(O)OP(=O)(O)OC[C@H]2OC(O)[C@H](O)[C@@H]2O)[C@@H](O)[C@H]1O` (some centres unmarked) [ADPR], the “X-ray crystal structure, 2.32 Å” value [1] is reported as “to determine the structure of the Larg1‐ADPR complex (PDB:7W3S)” and the Kd [2] is reported as 3.87 µM.

Source: PMC10989772 (mLife, 2022)
